From patent publication US4684664A, “Derivatives of β-(4-isocyano-1,2,3,4-diepoxycyclopentyl) acrylic acid” (Kureha Kagaku Kogyo Kabushiki Kaisha, priority 1984, dated 1987)
Values after ≈ are worked out from the molar mass of the structure shown.

Legend:
Type in all cases: cell-based
[1] = system: Staphylococcus aureus FDA 209PJc-1; assay: Antibacterial activity, agar-dilution MIC, organism No. 1; conditions: Staphylococcus aureus, FDA209PJC1; Organism No. 1, bouillon-agar; read-out: Minimum Inhibitory Concentration
Procedure, shortened: (§1)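 An agar-dilution procedure on bouillon-agar medium was applied, and each MIC was recorded as micrograms of specimen per ml of medium.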

[2] = system: Staphylococcus aureus Terajima; assay: Antibacterial activity, agar-dilution MIC, organism No. 2; conditions: Staphylococcus aureus; Organism No. 2, bouillon-agar; read-out: Minimum Inhibitory Concentration
Procedure, shortened: as §1

[3] = system: Staphylococcus aureus MS 353; assay: Antibacterial activity, agar-dilution MIC, organism No. 3; conditions: Staphylococcus aureus, MS353; Organism No. 3, bouillon-agar; read-out: Minimum Inhibitory Concentration
Procedure, shortened: as §1

[4] = system: Streptococcus pyogenes Cook; assay: Antibacterial activity, agar-dilution MIC, organism No. 4; conditions: Streptococcus pyogenes; Organism No. 4, bouillon-agar; read-out: Minimum Inhibitory Concentration
Procedure, shortened: as §1

[5] = system: Escherichia coli NIHJ-JC-2; assay: Antibacterial activity, agar-dilution MIC, organism No. 5; conditions: Escherichia coli, NIHJJC2; Organism No. 5, bouillon-agar; read-out: Minimum Inhibitory Concentration
Procedure, shortened: as §1

[6] = system: Escherichia coli K12 C600 IAM 1264; assay: Antibacterial activity, agar-dilution MIC, organism No. 6; conditions: Escherichia coli, IAM1264; Organism No. 6, bouillon-agar; read-out: Minimum Inhibitory Concentration
Procedure, shortened: as §1

[7] = system: Klebsiella pneumoniae PCI-602; assay: Antibacterial activity, agar-dilution MIC, organism No. 7; conditions: Klebsiella pneumoniae, PCI602; Organism No. 7, bouillon-agar; read-out: Minimum Inhibitory Concentration
Procedure, shortened: as §1

[8] = system: Salmonella typhimurium IID 971; assay: Antibacterial activity, agar-dilution MIC, organism No. 8; conditions: Salmonella enterica; Organism No. 8, bouillon-agar; read-out: Minimum Inhibitory Concentration
Procedure, shortened: as §1

Salmonella typhi 901 = assay: Antibacterial activity, agar-dilution MIC, organism No. 9; conditions: Salmonella enterica, TYPHI, read-out: Minimum Inhibitory Concentration
Procedure, shortened: as §1

[9] = system: Salmonella paratyphi-A 1015; assay: Antibacterial activity, agar-dilution MIC, organism No. 10; conditions: Salmonella enterica, PARATYPHI, read-out: Minimum Inhibitory Concentration
Procedure, shortened: as §1

[10] = system: Salmonella shottmuelleri 8006; assay: Antibacterial activity, agar-dilution MIC, organism No. 11; conditions: Salmonella, 8006; Organism No. 11, bouillon-agar; read-out: Minimum Inhibitory Concentration
Procedure, shortened: as §1

[11] = system: Salmonella enteritidis G 14; assay: Antibacterial activity, agar-dilution MIC, organism No. 12; conditions: Salmonella enterica, ENTERITIDIS; Organism No. 12, bouillon-agar; read-out: Minimum Inhibitory Concentration
Procedure, shortened: as §1

[12] = system: Serratia marcescens IAM 1184; assay: Antibacterial activity, agar-dilution MIC, organism No. 13; conditions: Serratia marcescens, IAM1184; Organism No. 13, bouillon-agar; read-out: Minimum Inhibitory Concentration
Procedure, shortened: as §1

[13] = system: Bacillus subtilis ATCC 6633; assay: Antibacterial activity, agar-dilution MIC, organism No. 14; conditions: Bacillus subtilis, ATCC6633; Organism No. 14, bouillon-agar; read-out: Minimum Inhibitory Concentration
Procedure, shortened: as §1

[14] = system: Pseudomonas aeruginosa IFO 3445; assay: Antibacterial activity, agar-dilution MIC, organism No. 15; conditions: Pseudomonas aeruginosa, IFO3445; Organism No. 15, bouillon-agar; read-out: Minimum Inhibitory Concentration
Procedure, shortened: as §1

[15] = system: Pseudomonas aeruginosa NCTC 10490; assay: Antibacterial activity, agar-dilution MIC, organism No. 16; conditions: Pseudomonas aeruginosa, NCTC10490; Organism No. 16, bouillon-agar; read-out: Minimum Inhibitory Concentration
Procedure, shortened: as §1

[16] = system: Pseudomonas aeruginosa PAO 1; assay: Antibacterial activity, agar-dilution MIC, organism No. 17; conditions: Pseudomonas aeruginosa, PAO1; Organism No. 17, bouillon-agar; read-out: Minimum Inhibitory Concentration
Procedure, shortened: as §1

[17] = system: Proteus morganii IFO 3848; assay: Antibacterial activity, agar-dilution MIC, organism No. 18; conditions: Morganella morganii, IFO3848; Organism No. 18, bouillon-agar; read-out: Minimum Inhibitory Concentration
Procedure, shortened: as §1

[18] = system: Proteus mirabilis IFO 3849; assay: Antibacterial activity, agar-dilution MIC, organism No. 19; conditions: Proteus mirabilis, IFO3849; Organism No. 19, bouillon-agar; read-out: Minimum Inhibitory Concentration
Procedure, shortened: as §1

Proteus vulgaris OX-19 = assay: Antibacterial activity, agar-dilution MIC, organism No. 20; conditions: Proteus vulgaris, OX19; Organism No. 20, bouillon-agar; read-out: Minimum Inhibitory Concentration
Procedure, shortened: as §1

Proteus vulgaris HX-19 = assay: Antibacterial activity, agar-dilution MIC, organism No. 21; conditions: Proteus vulgaris, HX19; Organism No. 21, bouillon-agar; read-out: Minimum Inhibitory Concentration
Procedure, shortened: as §1

[19] = system: Proteus rettgeri IFO 3850; assay: Antibacterial activity, agar-dilution MIC, organism No. 22; conditions: Providencia rettgeri, IFO3850; Organism No. 22, bouillon-agar; read-out: Minimum Inhibitory Concentration
Procedure, shortened: as §1

[20] = system: Enterobacter aerogenes ATCC 13048; assay: Antibacterial activity, agar-dilution MIC, organism No. 23; conditions: Klebsiella aerogenes, ATCC13048; Organism No. 23, bouillon-agar; read-out: Minimum Inhibitory Concentration
Procedure, shortened: as §1

Enterobacter cloacae 963 = assay: Antibacterial activity, agar-dilution MIC, organism No. 24; conditions: Enterobacter cloacae, 963; Organism No. 24, bouillon-agar; read-out: Minimum Inhibitory Concentration
Procedure, shortened: as §1

[21] = system: Micrococcus luteus ATCC 9341; assay: Antibacterial activity, agar-dilution MIC, organism No. 25; conditions: Micrococcus luteus, ATCC9341; Organism No. 25, bouillon-agar; read-out: Minimum Inhibitory Concentration
Procedure, shortened: as §1

[22] = system: Streptococcus pyogenes IFO 3340; assay: Antibacterial activity, agar-dilution MIC, organism No. 26; conditions: Streptococcus pyogenes, IFO3340; Organism No. 26, bouillon-agar; read-out: Minimum Inhibitory Concentration
Procedure, shortened: as §1

[23] = system: Streptococcus faecium IFO 3826; assay: Antibacterial activity, agar-dilution MIC, organism No. 27; conditions: Enterococcus faecium, IFO3826; Organism No. 27, bouillon-agar; read-out: Minimum Inhibitory Concentration
Procedure, shortened: as §1

[24] = system: Mycoplasma pneumoniae IID817; assay: Antimycoplasmal activity, MIC by phenol red colour change, organism No. 28; conditions: Mycoplasma, IID817; Organism No. 28, PPLO broth + 1% glucose, 37° C.; read-out: Minimum Inhibitory Concentration (MIC)
Procedure: Mycoplasma pneumoniae IID817 was used as the test microorganism in a culture medium prepared by adding 1% of glucose to "PPLO broth (manufactured by Difco Co.) liquid culture medium" at 37° C. with phenol red as an indicator, thereby culturing the test microorganism.

[25] = system: Candida albicans IAM 4905; assay: Antifungal activity, agar-dilution MIC, organism No. 29; conditions: Candida albicans, IAM4905; Organism No. 29, bouillon-agar; read-out: Minimum Inhibitory Concentration
Procedure, shortened: as §1

[26] = system: Aspergillus niger IFO 6342; assay: Antifungal activity, agar-dilution MIC, organism No. 30; conditions: Aspergillus niger, IFO6342; Organism No. 30, bouillon-agar; read-out: Minimum Inhibitory Concentration
Procedure, shortened: as §1

Structure (SMILES) | MIC [1] [µg/mL] | MIC [2] [µg/mL] | MIC [3] [µg/mL] | MIC [4] [µg/mL] | MIC [5] [µg/mL] | MIC [6] [µg/mL] | MIC [7] [µg/mL] | MIC [8] [µg/mL] | MIC (Salmonella typhi 901) [µg/mL] | MIC [9] [µg/mL] | MIC [10] [µg/mL] | MIC [11] [µg/mL] | MIC [12] [µg/mL] | MIC [13] [µg/mL] | MIC [14] [µg/mL] | MIC [15] [µg/mL] | MIC [16] [µg/mL] | MIC [17] [µg/mL] | MIC [18] [µg/mL] | MIC (Proteus vulgaris OX-19) [µg/mL] | further results
[C-]#[N+]C12CC3(/C=C/C(=O)OCC(=O)c4cccc(OC)c4)OC3C1O2 (stereo not drawn) [compound 7] | 0.39 (≈ 1.14 µM) | 6.25 (≈ 18.3 µM) | 0.39 (≈ 1.14 µM) | 12.5 (≈ 36.6 µM) | 25 (≈ 73.2 µM) | 12.5 (≈ 36.6 µM) | 3.13 (≈ 9.17 µM) | 25 (≈ 73.2 µM) | 6.25 (≈ 18.3 µM) | 12.5 (≈ 36.6 µM) | 6.25 (≈ 18.3 µM) | 12.5 (≈ 36.6 µM) | 25 (≈ 73.2 µM) | 6.25 (≈ 18.3 µM) | > 100 | > 100 | > 100 | 12.5 (≈ 36.6 µM) | 12.5 (≈ 36.6 µM) | 1.56 (≈ 4.57 µM) | MIC (Proteus vulgaris HX-19): 0.39 µg/mL (≈ 1.14 µM); MIC [19]: > 100 µg/mL; MIC [20]: > 100 µg/mL; MIC (Enterobacter cloacae 963): > 100 µg/mL; MIC [21]: 0.39 µg/mL (≈ 1.14 µM); MIC [22]: 12.5 µg/mL (≈ 36.6 µM); MIC [23]: 6.25 µg/mL (≈ 18.3 µM); MIC [24]: < 0.2 µg/mL; MIC [25]: 1.56 µg/mL (≈ 4.57 µM); MIC [26]: 3.13 µg/mL (≈ 9.17 µM)
[C-]#[N+]C12CC3(/C=C/C(=O)OCC(=O)c4ccc([N+](=O)[O-])cc4)OC3C1O2 (stereo not drawn) [compound 8] | 12.5 (≈ 35.1 µM) | 25 (≈ 70.2 µM) | 12.5 (≈ 35.1 µM) | 50 (≈ 140 µM) | 25 (≈ 70.2 µM) | 25 (≈ 70.2 µM) | 50 (≈ 140 µM) | 25 (≈ 70.2 µM) | 12.5 (≈ 35.1 µM) | 25 (≈ 70.2 µM) | 25 (≈ 70.2 µM) | 12.5 (≈ 35.1 µM) | 100 (≈ 281 µM) | 100 (≈ 281 µM) | > 100 | > 100 | > 100 | 25 (≈ 70.2 µM) | 100 (≈ 281 µM) | 12.5 (≈ 35.1 µM) | MIC (Proteus vulgaris HX-19): 12.5 µg/mL (≈ 35.1 µM); MIC [19]: > 100 µg/mL; MIC [20]: > 100 µg/mL; MIC (Enterobacter cloacae 963): > 100 µg/mL; MIC [21]: 12.5 µg/mL (≈ 35.1 µM); MIC [22]: 50 µg/mL (≈ 140 µM); MIC [23]: 25 µg/mL (≈ 70.2 µM); MIC [24]: 1.56 µg/mL; MIC [25]: 25 µg/mL (≈ 70.2 µM); MIC [26]: 100 µg/mL (≈ 281 µM)
[C-]#[N+]C12CC3(/C=C/C(=O)OCc4c(C)cc(C)cc4C)OC3C1O2 (stereo not drawn) [compound 11] | 3.13 (≈ 9.62 µM) | 6.25 (≈ 19.2 µM) | 3.13 (≈ 9.62 µM) | 3.13 (≈ 9.62 µM) | 25 (≈ 76.8 µM) | 25 (≈ 76.8 µM) | 6.25 (≈ 19.2 µM) | 12.5 (≈ 38.4 µM) | 6.25 (≈ 19.2 µM) | 12.5 (≈ 38.4 µM) | 12.5 (≈ 38.4 µM) | 12.5 (≈ 38.4 µM) | 12.5 (≈ 38.4 µM) | 0.78 (≈ 2.4 µM) | > 100 | > 100 | > 100 | 3.13 (≈ 9.62 µM) | 12.5 (≈ 38.4 µM) | 6.25 (≈ 19.2 µM) | MIC (Proteus vulgaris HX-19): 3.13 µg/mL (≈ 9.62 µM); MIC [19]: 12.5 µg/mL (≈ 38.4 µM); MIC [20]: > 100 µg/mL; MIC (Enterobacter cloacae 963): > 100 µg/mL; MIC [21]: < 0.1 µg/mL; MIC [22]: 3.13 µg/mL (≈ 9.62 µM); MIC [23]: 6.25 µg/mL (≈ 19.2 µM); MIC [24]: < 0.2 µg/mL; MIC [25]: 1.56 µg/mL (≈ 4.79 µM); MIC [26]: 6.25 µg/mL (≈ 19.2 µM)
[C-]#[N+]C12CC3(/C=C/C(=O)OCc4cccc(OC)c4)OC3C1O2 (stereo not drawn) [compound 12] | 1.56 (≈ 4.98 µM) | 3.13 (≈ 9.99 µM) | 0.78 (≈ 2.49 µM) | 3.13 (≈ 9.99 µM) | 6.25 (≈ 19.9 µM) | 6.25 (≈ 19.9 µM) | 0.39 (≈ 1.24 µM) | 6.25 (≈ 19.9 µM) | 3.13 (≈ 9.99 µM) | 3.13 (≈ 9.99 µM) | 3.13 (≈ 9.99 µM) | 3.13 (≈ 9.99 µM) | 12.5 (≈ 39.9 µM) | 1.56 (≈ 4.98 µM) | > 100 | > 100 | > 100 | 1.56 (≈ 4.98 µM) | 3.13 (≈ 9.99 µM) | 0.78 (≈ 2.49 µM) | MIC (Proteus vulgaris HX-19): < 0.1 µg/mL; MIC [19]: > 100 µg/mL; MIC [20]: > 100 µg/mL; MIC (Enterobacter cloacae 963): > 100 µg/mL; MIC [21]: < 0.1 µg/mL; MIC [22]: 3.13 µg/mL (≈ 9.99 µM); MIC [23]: 3.13 µg/mL (≈ 9.99 µM); MIC [24]: 0.4 µg/mL; MIC [25]: 1.56 µg/mL (≈ 4.98 µM); MIC [26]: 3.13 µg/mL (≈ 9.99 µM)
